Measurements: PubChem BioAssay AID1159563 (GlaxoSmithKline (GSK), 2015)
Active and inactive are the calls of the source. How the calls were made is not given here.

test system: HepG2 cytotoxicity; assay: human hepatoma cell viability loss – cytotoxicity control (AID 1159563)

| SMILES | IC50 |
| --- | --- |
| COc1cccc(-c2cc(C(F)(F)F)nc(-n3ccc([N+](=O)[O-])n3)n2)c1 | > 100 µM (inactive) |
| CC(C)COC(=O)Nc1ccc(N2CCC(CNS(=O)(=O)c3ccccc3)CC2)c(F)c1 | > 100 µM (inactive) |
| COc1ccc(C(C)(C)C)cc1S(=O)(=O)n1ccnc1 | > 100 µM (inactive) |
| CNc1cncc(C2CCCN2C(=O)Cc2ccc3ccccc3c2)n1 (stereo unspecified) | > 100 µM (inactive) |
| N#Cc1cc([N+](=O)[O-])ccc1NC1CCCCCC1 | > 100 µM (inactive) |
| O=C(NC1CCN(C2Cc3ccc(NS(=O)(=O)c4cc(F)cc(F)c4)cc3C2)CC1)C1CC1 (stereo unspecified) | > 100 µM (inactive) |
| CN(C)S(=O)(=O)c1cccc(C(=O)Nc2nc(-c3ccccn3)cs2)c1 | > 100 µM (inactive) |
| Cc1nn(-c2nc(N)nc(-c3ccccn3)n2)c(C)c1Cc1ccccc1 | > 100 µM (inactive) |
| O=C(CCCn1cnc([N+](=O)[O-])n1)Nc1cccc(Cl)c1 | > 100 µM (inactive) |
| Cc1[nH]nc(-c2nc3ccccc3[nH]2)c1C(=O)NC1CCCNC1 (stereo unspecified) | > 100 µM (inactive) |
| CC(c1cc(Cl)cc(Cl)c1)N(C)c1ncc2c(N)nc(N)nc2n1 (stereo unspecified) | 63 µM |
| CCC1Oc2cc(S(=O)(=O)N(C)CC(=O)N3CCc4ccccc4C3)c(C)cc2NC1=O (stereo unspecified) | > 100 µM (inactive) |
| NS(=O)(=O)c1ccc(Nc2nccc(-c3cnn4ncccc34)n2)cc1 | > 100 µM (inactive) |
| O=C(Cn1cnc([N+](=O)[O-])n1)Nc1ccc(Cl)cc1C(=O)c1ccccc1 | > 100 µM (inactive) |
| CCN(CC)c1ccc(S(=O)(=O)N(CC)CC)c2nonc12 | > 100 µM (inactive) |
| Fc1ccccc1N1C[C@H]2CCN(c3cccnc3)C[C@H]2C1 | > 100 µM (inactive) |
| Clc1ccc(C(CC2CCCCO2)Cn2cncn2)c(Cl)c1 (stereo unspecified) | > 100 µM (inactive) |
| CCCc1cc(C(=O)Nc2ncc(-c3cccc(Br)c3)n2C)n[nH]1 | > 100 µM (inactive) |
| O=C(Nc1cccc(Cl)c1)Nc1ccc([N+](=O)[O-])cc1Cl | 32 µM |
| CCc1cccc(-n2nc(OCC(=O)NC3CCCC3)c3cccnc32)c1 | > 100 µM (inactive) |
| CCC(=O)Nc1ccc(C(=O)Nc2ccccc2-c2ccccc2)cc1 | > 100 µM (inactive) |
| NC(=O)c1ccsc1NC(=O)c1ccc([N+](=O)[O-])s1 | > 100 µM (inactive) |
| c1ccc2sc(Nc3nc4ncccc4[nH]3)nc2c1 | 20 µM |
| CCc1cc(C(=O)Nc2nccn2-c2ccccc2)cs1 | > 100 µM (inactive) |
| Cc1cc(N2CCc3ccccc3C2)nc(Nc2ccc(S(=O)(=O)N3CCOCC3)cc2)n1 | > 100 µM (inactive) |
| CC(=O)Nc1cccc(Nc2ncnc3nc[nH]c23)c1 | > 100 µM (inactive) |

| SMILES | IC50 |
| --- | --- |
| CC(C)(C)c1csc(NC(=O)c2ccc([N+](=O)[O-])s2)n1 | 50 µM |
| Cc1ccc(NC(C)C(=O)Nc2ccc(C#N)cc2)cc1S(=O)(=O)N1CCCCC1 (stereo unspecified) | 79 µM |
| Cc1ccc2ccc(C(Nc3ccccn3)c3cccnc3)c(O)c2n1 (stereo unspecified) | 20 µM |
| CN(CCOc1ccc(Cl)cc1)Cc1nc(N)nc(N(C)C)n1 | > 100 µM (inactive) |
| CS(=O)(=O)c1ccc(Nc2nccc(-c3cnn4ncccc34)n2)cc1 | 16 µM |
| c1ccc(-c2nc(NCc3ccco3)c3ccccc3n2)nc1 | > 100 µM (inactive) |
| Cc1c(C(C)NC(=O)Nc2cccc(Cl)c2)sc2ncnn12 (stereo unspecified) | > 100 µM (inactive) |
| COc1ccc2ncc(F)c(CCN3CC[C@@H](NC(=O)c4cc5c(s4)CCC5)[C@@H](O)C3)c2n1 | 50 µM |
| Cc1cc(=O)n2nc(Oc3ccc(C#N)cc3Cl)sc2n1 | 40 µM |
| COc1ccc2ncc(Cl)c(CCN3CC[C@@H](NCc4cc5c(cn4)OCS5)[C@H](O)C3)c2n1 | 50 µM |
| O=S(=O)(NCC(c1cccnc1)N1CCN(c2ccc(F)cc2)CC1)c1cccs1 (stereo unspecified) | > 100 µM (inactive) |
| O=C(Nc1nccs1)c1ccccc1Cn1cc([N+](=O)[O-])cn1 | > 100 µM (inactive) |
| Cc1ccc2c(c1)SC(C(=O)Nc1n[nH]c(-c3ccccn3)n1)C2 (stereo unspecified) | 25 µM |
| COc1ccc(NS(=O)(=O)c2cc(-c3cc(C)[nH]n3)ccc2C)cc1OC | > 100 µM (inactive) |
| Cc1nn2c(NCCCO)c3c(nc2c1-c1cccs1)CCC3 | > 100 µM (inactive) |
| CCC(=O)Nc1ccccc1C(=O)Nc1ccccn1 | > 100 µM (inactive) |
| COc1ccc(NS(=O)(=O)c2cccc(NC(=O)c3cc(F)cc(F)c3)c2)cc1 | 32 µM |
| CC1(C)CCC(=Cc2ccc(Cl)cc2)CC1(O)Cn1ccnc1 (stereo unspecified) | 50 µM |
| O=C(Nc1cccc(S(=O)(=O)Nc2ccc(Br)cc2)c1)c1ccc([N+](=O)[O-])s1 | 16 µM |
| CC(CCc1ccccc1)NC(=O)CN(Cc1ccccn1)Cc1ccccn1 (stereo unspecified) | > 160 µM (inactive) |
| O=c1cc(NCCCNCc2cc(C(F)(F)F)cs2)[nH]c2ccccc12 | 63 µM |
| O=C(Nc1ccccc1)Nc1nc(-c2ccccn2)cs1 | 25 µM |
| COc1cccc(C(=O)[C@H]2C[C@@H]2CN(Cc2ccccn2)Cc2ccccn2)c1 | > 100 µM (inactive) |
| CC(C)c1nn(-c2nc(N)nc(-c3ccccn3)n2)c(N)c1C1CCCCC1 | 20 µM |
| CC(C(=O)Nc1ccccc1F)N(C)CC(=O)Nc1cccc2ccccc12 (stereo unspecified) | > 100 µM (inactive) |
| Cc1cn[nH]c1C1CCCN(Cc2nc3ccccc3n2C)C1 (stereo unspecified) | 50 µM |

| SMILES | IC50 |
| --- | --- |
| CCOc1ccc(NC(=O)c2ccc(NC(=O)NC3CCCCC3)cc2)cc1 | > 100 µM (inactive) |
| O=C(Nc1cccc(Cl)c1)N1CCCCC1c1cccnc1 (stereo unspecified) | > 100 µM (inactive) |
| Cc1ccc(C)c(CN2C(=O)NC3(CCc4ccccc43)C2=O)c1 (stereo unspecified) | > 100 µM (inactive) |
| CN(C)c1ncc(-c2cncn2CCOc2ccc(Cl)cc2)cn1 | > 100 µM (inactive) |
| O=C(Nc1ccc(C(F)(F)F)cc1)Nc1cccc([N+](=O)[O-])c1 | 10 µM |
| Cc1ccc(NC(=O)c2ccnc(N3CCCC3)c2)cc1-c1cc(C(N)=O)ccc1C | > 100 µM (inactive) |
| Cn1nc(-c2ccc(NC(=O)Cc3ccccc3Cl)cc2)c2c(N)ncnc21 | > 100 µM (inactive) |
| O=C(NC1C(=O)N(c2ccccc2)C1c1cccnc1)c1ccc(Cl)s1 (stereo unspecified) | > 100 µM (inactive) |
| CCNc1cc(-c2ccccn2)nc(Nc2ccccc2)n1 | 25 µM |
| COc1ccccc1C1CC(c2ccc(NS(C)(=O)=O)cc2)=NN1C(=O)c1cccs1 (stereo unspecified) | > 100 µM (inactive) |
| O=C(c1cnn(-c2ccccc2)n1)N1CCCC(n2ccnc2)C1 (stereo unspecified) | > 100 µM (inactive) |
| O=C(NCCc1csc(-c2cccc(F)c2)n1)c1ccco1 | > 100 µM (inactive) |
| c1ccc(Nc2nc(-c3ccccn3)cc(N3CCOCC3)n2)cc1 | > 100 µM (inactive) |
| O=S(=O)(c1cccc(CSc2nnc(-c3ccc4c(c3)OCO4)o2)c1)N1CCOCC1 | > 100 µM (inactive) |
| COc1ccc(C2CC(c3ccccc3Cl)=NN2C(=O)CNC(=O)C2CCC2)cc1 (stereo unspecified) | > 100 µM (inactive) |
| O=C(CN(c1cccc(C(F)(F)F)c1)S(=O)(=O)c1ccc(Cl)cc1)NCc1ccc(F)c(F)c1 | > 100 µM (inactive) |
| COc1cccc(-c2c(C)nn(-c3nc(N)nc(-c4ccccn4)n3)c2N)c1 | > 100 µM (inactive) |
| CCCn1c(NC(=O)Cc2ccc(Cl)cc2)nc2ccccc21 | > 100 µM (inactive) |
| N#Cc1ccc(S(=O)(=O)N2CCN(Cc3cccc(-c4ccncc4)c3)CC2)cc1 | > 100 µM (inactive) |
| Cc1nn(-c2nc3ccccc3[nH]2)c2c1C(c1ccc(O)cc1)CC(=O)N2 (stereo unspecified) | 25 µM |
| CCS(=O)(=O)c1cccc(C(=O)Nc2nc(-c3ccccn3)cs2)c1 | 25 µM |
| COc1ccc(C(=O)Nc2c(C)nn(COc3cccc(C(F)(F)F)c3)c2C)cc1 | > 100 µM (inactive) |
| CNC(=O)C1Cc2ccccc2N1C(=O)Cc1ccc(F)cc1 (stereo unspecified) | > 100 µM (inactive) |
| COc1ccc(-c2cc(C)no2)cc1S(=O)(=O)Nc1ccc(C)c(C)c1 | > 100 µM (inactive) |
| CCOc1cc(NCCCN2CCN(C)CC2)c2ncccc2c1 | 32 µM |
| O=C(CN(Cc1ccccn1)Cc1ccccn1)NCc1ccc(-c2csnn2)cc1 | 25 µM |

| SMILES | IC50 |
| --- | --- |
| CN(C)c1ccc(N)cc1CN(CC1CCCO1)S(C)(=O)=O (stereo unspecified) | > 100 µM (inactive) |
| CC(C)Nc1nccc(-c2c(-c3ccc(F)cc3)ncn2C2CCOCC2)n1 | > 100 µM (inactive) |
| NC(=O)c1cc(F)ccc1Nc1nc(NC2CCC(O)CC2)ncc1Cl (stereo unspecified) | > 100 µM (inactive) |
| COCc1cc(Nc2cccc(Cl)c2)nc(-c2ccccn2)n1 | 40 µM |
| CCCCn1c(=O)c2c(N)onc2n(CCCC)c1=O | 50 µM |
| Cn1nccc1NC(=O)Cn1ccc(-c2ccncc2)n1 | > 100 µM (inactive) |
| N#Cc1ccccc1S(=O)(=O)N1CCN(C(=O)CNC(=O)c2ccc3c(c2)OCO3)CC1 | > 100 µM (inactive) |
| Cc1cc(NC(=O)C2CC2)ccc1OC1CCN(Cc2ccco2)CC1 | 50 µM |
| COc1ccc(C2C3CCCCC3(O)CCN2CC(=O)Nc2ccc(Cl)cc2Cl)cc1 (stereo unspecified) | > 100 µM (inactive) |
| O=C(COc1nn(-c2ccccc2)c2ncccc12)NCc1ccccc1 | > 100 µM (inactive) |
| COc1ccc2ncc(F)c(NC(=O)C3(O)CCC(NCc4ccc5c(c4)OCCO5)CC3)c2n1 (stereo unspecified) | 50 µM |
| Cn1nc([N+](=O)[O-])nc1N1CCCCC1 | > 100 µM (inactive) |
| Cc1nc(C(=O)Nc2ccc3c(c2)OCO3)nn1-c1ccc(F)cc1 | > 100 µM (inactive) |
| CCc1ccccc1[C@@H](C)NC(=O)c1cnc2c(cnn2CC)c1NC1CCN(C(N)=O)CC1 | > 100 µM (inactive) |
| O=c1[nH]c(NCCCNCc2cc(Br)cc(Br)c2)nc2ccsc12 | 50 µM |
| N#Cc1cnc(Nc2cccc(CCN3CCOCC3)c2)nc1Nc1ccccc1C(N)=O | 25 µM |
| Cc1ccccc1CNC(=O)CN(Cc1ccccn1)Cc1ccccn1 | > 160 µM (inactive) |
| FC(F)(F)c1cc(C2CCCN(Cc3c[nH]c4ccccc34)C2)nc2ncnn12 (stereo unspecified) | > 100 µM (inactive) |
| CC1CN(S(=O)(=O)c2ccc(NC(=O)c3cc(C4CC4)nc4c3cnn4C(C)C)cc2)CC(C)O1 (stereo unspecified) | > 100 µM (inactive) |
| CCN(CC)S(=O)(=O)c1ccc(C)c(NC(=O)c2cc(Cl)c3c(c2)OCO3)c1 | > 100 µM (inactive) |
| CC(C)Nc1nc(Cl)nc2ccccc12 | 40 µM |
| COc1cc(-c2nc(N3CCOCC3)sc2-c2ccnc(NC3CCOCC3)n2)ccc1Cl | > 100 µM (inactive) |
| CCCCCNC(=O)c1c[nH]c2ccc(S(=O)(=O)N(C)c3ccc(OCC)cc3)cc2c1=O | > 100 µM (inactive) |
